Tests used:
Rattus norvegicus [1] = assay: Change in systolic blood pressure at intervals of 1 hr after oral administration of 1 mg/kg of compound in spontaneously hypertensive rats (in vivo); Not significant; type: functional, Artery
Cavia porcellus [2] = species on record: Cavia porcellus; assay: In vitro inhibition of spontaneous tone of guinea pig tracheal spirals; type: functional; conditions: Trachea
Rattus norvegicus [3] = species on record: Rattus norvegicus; assay: Percentage of inhibition of noradrenaline-induced contractions in rat portal vein at 10 uM (in vitro); type: functional
Rattus norvegicus [4] = species on record: Rattus norvegicus; assay: In vitro inhibition of noradrenaline-induced contractions in rat portal vein; type: functional
Rattus norvegicus [5] = assay: Effective dose (after peroral administration) required to decrease systolic blood pressure by 30 mmHg in spontaneously hypertensive rats (SHR); type: functional; conditions: Artery, po
Rattus norvegicus [6] = assay: Change in systolic blood pressure at intervals of 1 hr after oral administration of 1 mg/kg of compound in spontaneously hypertensive rats (in vivo); type: functional, Artery
Rattus norvegicus [7] = assay: Change in systolic blood pressure at intervals of 1 hr after oral administration of 0.1 mg/kg of compound in spontaneously hypertensive rats (in vivo); type: functional, Artery
Rattus norvegicus [8] = species on record: Rattus norvegicus; assay: Inhibition of noradrenaline-induced contractions in rat portal vein; Insoluble; type: functional
Cavia porcellus [9] = species on record: Cavia porcellus; assay: Inhibition of spontaneous tone of guinea pig tracheal spirals; Insoluble; type: functional, Trachea

| SMILES | IC50 (Cavia porcellus [2]) [µM] | IC50 (Rattus norvegicus [4]) [µM] | ED30 (Rattus norvegicus [5]) [µg/kg] | further results |
| --- | --- | --- | --- | --- |
| CC1(C)C(=O)c2ccc(C#N)cc2[C@@H](NC(=O)c2ccc(Cl)c(Cl)c2)[C@@H]1O | > 10 | – | – | Delta blood pressure (Rattus norvegicus [1]): <20 mmHg; inhibition at 10 µM (Rattus norvegicus [3]): 67% |
| CC1(C)C=C(n2ccccc2=O)c2cc(C#N)ccc2C1=O | 0.5 | 0.6 | 4 | – |
| CC1(C)C(=O)c2ccc(C#N)cc2[C@@H](Oc2ccc(=O)[nH]n2)[C@@H]1O | 2.1 | 8.8 | 6 | – |
| C/C(=N/[C@@H]1c2cc(C#N)ccc2C(=O)C(C)(C)[C@H]1O)NC#N | 3.5 | – | – | Delta blood pressure (Rattus norvegicus [1]): <20 mmHg; inhibition at 10 µM (Rattus norvegicus [3]): 19% |
| CC(=O)OC1c2ccc(Br)cc2C(n2ccccc2=O)=CC1(C)C (configuration not stated) | > 10 | – | – | Delta blood pressure (Rattus norvegicus [1]): <20 mmHg; inhibition at 10 µM (Rattus norvegicus [3]): 38% |
| Cn1nc(O[C@@H]2c3cc(C#N)ccc3C(=O)C(C)(C)[C@H]2O)ccc1=O | 0.6 | 2.8 | 40 | – |
| CC1(C)C=C(n2ccccc2=O)c2cc(C#C[Si](C)(C)C)ccc2C1=O | 2.4 | 0.5 | 5 | – |
| C#Cc1ccc2c(c1)C(n1ccccc1=O)=CC(C)(C)C2=O | 0.2 | 1 | 2 | Max fall in blood pressure (Rattus norvegicus [6]): 94 mmHg |
| CC1(C)C=C(n2ccccc2=O)c2cc(C(F)(F)C(F)(F)F)ccc2C1=O | – | – | 2 | Max fall in blood pressure (Rattus norvegicus [7]): 81 mmHg; IC50 (Rattus norvegicus [8]): Insoluble; IC50 (Cavia porcellus [9]): Insoluble |
| CC1(C)C=C(n2ccccc2=O)c2cc(C(F)(F)F)ccc2C1=O | 0.5 | 0.3 | 5 | – |
| CC1(C)C=C(n2ccccc2=O)c2cc(Br)ccc2C1=O | 0.2 | 0.5 | 9 | Max fall in blood pressure (Rattus norvegicus [7]): 42.6 mmHg |
| CC1(C)C=C(n2ccccc2=O)c2cc(C(N)=O)ccc2C1=O | > 10 | – | – | Delta blood pressure (Rattus norvegicus [1]): <20 mmHg; inhibition at 10 µM (Rattus norvegicus [3]): 21% |
| CC1(C)C=C(N2CCCC2=O)c2cc(C#N)ccc2C1=O | 0.9 | 0.8 | 30 | – |
| CC1(C)Oc2ccc(C#N)cc2C(N2CCCC2=O)C1O (racemic) [CROMAKALIM] | – | – | 50 | – |
| CC1(C)Oc2ccc(C#N)cc2[C@@H](N2CCCC2=O)[C@@H]1O [LEVCROMAKALIM] | 0.3 | 0.1 | 10 | Max fall in blood pressure (Rattus norvegicus [7]): 73 mmHg |

From ChEMBL document CHEMBL1126745, “2,2-Dialkylnaphthalen-1-ones as new potassium channel activators” (J Med Chem, 1993)
